Measured values from patent publication US20220387602A1, “BIFUNCTIONAL DEGRADERS AND THEIR METHODS OF USE” (NOVARTIS AG, priority 2019, published 2022).
One block for each molecule: values may come before it.

Key:
hTNNI3K WT = biological target: T1, hTNNI3K WT (Homo sapiens, UniProt Q59H18); assay: TNNI3K degradation in HEK293 cells overexpressing hTNNI3K WT (western blot); assay type: cell-based; details: FIGS. 4A-4B; for TNNI3K degradation (western blot): concentration dependent; for concentration from which no residual TNNI3K was detected: western blot, 18 hours
T1 construct: expressed in transfected cells
T1 sequence (Q59H18 1-835): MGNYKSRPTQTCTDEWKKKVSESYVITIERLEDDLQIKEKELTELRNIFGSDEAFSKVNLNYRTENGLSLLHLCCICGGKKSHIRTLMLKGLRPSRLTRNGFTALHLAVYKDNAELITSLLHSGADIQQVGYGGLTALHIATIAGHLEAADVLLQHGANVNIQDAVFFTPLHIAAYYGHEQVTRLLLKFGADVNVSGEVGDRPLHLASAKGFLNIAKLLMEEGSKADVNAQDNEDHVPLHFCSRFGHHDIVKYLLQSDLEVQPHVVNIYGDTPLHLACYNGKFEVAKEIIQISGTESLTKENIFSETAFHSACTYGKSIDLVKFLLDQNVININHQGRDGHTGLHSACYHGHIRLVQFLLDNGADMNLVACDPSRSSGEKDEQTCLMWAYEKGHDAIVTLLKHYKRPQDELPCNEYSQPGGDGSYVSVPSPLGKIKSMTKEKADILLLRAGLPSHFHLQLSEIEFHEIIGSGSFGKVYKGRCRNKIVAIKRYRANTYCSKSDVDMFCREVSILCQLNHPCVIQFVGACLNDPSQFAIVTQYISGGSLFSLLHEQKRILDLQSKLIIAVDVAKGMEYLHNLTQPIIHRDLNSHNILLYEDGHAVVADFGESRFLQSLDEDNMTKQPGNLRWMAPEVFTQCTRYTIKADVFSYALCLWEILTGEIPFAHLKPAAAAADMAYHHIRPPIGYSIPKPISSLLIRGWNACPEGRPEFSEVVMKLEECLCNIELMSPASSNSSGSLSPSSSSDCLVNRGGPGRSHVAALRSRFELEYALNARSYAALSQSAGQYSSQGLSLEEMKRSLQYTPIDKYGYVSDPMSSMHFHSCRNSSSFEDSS
Experimental: HEK293-hTNNI3K stable cells were seeded at 400,000 cells/well in 6-well plate and incubated at 37° C. and 5% CO2 overnight in DMEM containing 10% FBS. The following day growth media was replaced with low-serum media containing DMEM with 0.5% FBS and incubated at 37° C. and 5% CO2 overnight. Following overnight serum starvation, cells were treated with compounds at 20 μM starting dose with 1:5 serial dilution prepared in low-serum media. Media was removed and compounds were added to 6-well plate at 2 mL per well and cells were incubated at 37° C. and 5% CO2 for 18 hours. Following compound treatment cells were washed with cold DPBS containing protease/phosphatase inhibitor cocktail (Thermo #1861284) and lysed in RIPA buffer on ice (Pierce #89900, also containing protease/phosphatase inhibitors). Following sonication and frequent vortexing at 4° C. for approximately 1 hour, samples were centrifuged at 14,000 rpm for 20 minutes. Supernatants were collected for protein samples. Protein concentration was determined using BioRad DC Protein Assay (FIGS. 3A and 3C).
Samples for western blotting were prepared in loading buffer (Thermo #NP0007) and 8 μg protein was loaded per lane in 4-12% Novex Bis-Tris gel and run at 60V for approximately 1 hour. Gels were transferred to PVDF membrane using semi-dry transfer device iBlot 2 from Thermo Scientific. Blots were blocked using Superblock T20 blocking solution for 2 hours at room temperature (Thermo #37536). Blots were then incubated with primary antibodies overnight with gentle shaking at 4° C. (TNNI3K #ab136954 and Beta-Actin CST #3700) at 1:1000 and 1:2000 dilution respectively. Following overnight primary antibody incubation, blots were washed 3 times on rocker for 5 minutes each with 1×TBS-T at room temperature. Blots were then incubated with secondary HRP-anti-rabbit at 1:2000 dilution (CST #7074) for 2 hours at room temperature. Blots were then washed with 1×TBS-T 3 times on rocker for 5 minutes each. Protein bands were detected using BioRad Chemi-Doc station and Supersignal West Dura substrate (Thermo #34075). Protein bands were quantified using ImageJ software. TNNI3K bands were normalized to beta-actin loading control. Data are graphed by fold change of cpd over DMSO control.
Here the amount of total normalized TNNI3K expression levels were monitored upon compound treatment in a dose dependent manner. IC50 refers to the concentration at which 50% reduction in protein expression was observed.

BTK = biological target: T2, BTK (Homo sapiens, UniProt Q06187); assay: BTK-GFP protein abundance flow cytometry assay in HEK293A; assay type: cell-based; details: 24 h; for BTK degradation Amax: % protein remaining at the concentration at which maximum degradation is seen, HEK293A; for DC50: concentration at which 50% maximal degradation was observed, HEK293A BTK-GFP sensor cells
T2 construct: the BTK open reading frame (ORF) was first shuttled from a pcDNA-DEST40-BTK vector; expressed in transfected cells; host or cells: HEK293A (Invitrogen R70507), lentiviral transduction, blasticidin selection
In short: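 HEK293A cells stably expressing bicistronic BTK-GFP-iresRFP were treated 24 h at 37° C with 10-point 1:3 dilutions from 10 μM, DMSO at 0.1%. GFP was read by flow cytometry as median of 5,000 single cells, scaled between RFP-only cells (0%) and DMSO controls (100%). DC50 = concentration at 50% degradation; Amax = % protein remaining at maximal degradation.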

CRBN [1] = biological target: T3, CRBN (Homo sapiens, UniProt Q96SW2); assay: CRBN displacement assay Format 1 (fluorescence polarization, BodipyFL-lenalidomide probe Compound HH); assay type: binding
In short: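 Fluorescence polarization competition: CRBN (nominal 100 nM final) pre-incubated 45 min at room temperature with compound, then BodipyFL-lenalidomide probe added (5 nM final; 0.9% DMSO).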

CRBN [2] = biological target: T3, CRBN; assay: CRBN displacement assay Format 2b (as 2a, quadruplicate, PHERAstar reader); assay type: binding
Experimental: Assay conditions are similar to Format 2a with the exception of • a. The assay run in quadruplicate • b. PHERAstar reader (BMG Labtech, Offenburg, Germany) was used instead of an Envision reader • c. For the determination of AC50 values, assays were performed at room temperature in 1536-well plates with a total assay volume of […] per well. The test compounds were dissolved and diluted in 100% DMSO. For the assays, 30 nL of DMSO or compound solution were added per well, followed by the addition of 3 μL protein solution (80 nM protein in 1× assay buffer).

CRBN [3] = biological target: T3, CRBN; assay: CRBN displacement assay Format 2a (fluorescence polarization, 1536-well, Envision reader); assay type: binding
In short: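 Competition format: compound first equilibrated with CRBN protein (nominally 40 nM) for 45 min at RT, then challenged 45 min with 5 nM BodipyFL-conjugated lenalidomide tracer. FP measured at 480 nm excitation/535 nm emission; AC50 derived by four-parameter logistic fit of %-saturation.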

[4] = concentration at which 50% of reference probe Compound HH is displaced, quadruplicate, read-out: CRBN AC50 [μM] Format 2b
[5] = concentration at which 50% of reference probe Compound HH is displaced, 40 nM protein, 5 nM probe, read-out: CRBN AC50 [μM] Format 2a

T3 sequence (Q96SW2 whole entry): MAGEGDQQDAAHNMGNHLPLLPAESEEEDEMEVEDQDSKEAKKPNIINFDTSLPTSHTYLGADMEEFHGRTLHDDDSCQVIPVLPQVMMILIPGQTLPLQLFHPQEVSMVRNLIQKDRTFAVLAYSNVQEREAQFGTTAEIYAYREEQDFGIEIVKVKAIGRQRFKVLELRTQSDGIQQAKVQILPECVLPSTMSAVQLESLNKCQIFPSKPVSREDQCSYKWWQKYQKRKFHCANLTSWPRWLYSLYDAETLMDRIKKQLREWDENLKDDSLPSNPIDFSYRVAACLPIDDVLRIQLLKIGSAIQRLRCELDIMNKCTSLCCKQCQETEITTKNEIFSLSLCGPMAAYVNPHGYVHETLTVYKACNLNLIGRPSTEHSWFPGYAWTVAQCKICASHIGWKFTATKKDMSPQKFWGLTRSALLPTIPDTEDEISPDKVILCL
T2 sequence (Q06187 whole entry): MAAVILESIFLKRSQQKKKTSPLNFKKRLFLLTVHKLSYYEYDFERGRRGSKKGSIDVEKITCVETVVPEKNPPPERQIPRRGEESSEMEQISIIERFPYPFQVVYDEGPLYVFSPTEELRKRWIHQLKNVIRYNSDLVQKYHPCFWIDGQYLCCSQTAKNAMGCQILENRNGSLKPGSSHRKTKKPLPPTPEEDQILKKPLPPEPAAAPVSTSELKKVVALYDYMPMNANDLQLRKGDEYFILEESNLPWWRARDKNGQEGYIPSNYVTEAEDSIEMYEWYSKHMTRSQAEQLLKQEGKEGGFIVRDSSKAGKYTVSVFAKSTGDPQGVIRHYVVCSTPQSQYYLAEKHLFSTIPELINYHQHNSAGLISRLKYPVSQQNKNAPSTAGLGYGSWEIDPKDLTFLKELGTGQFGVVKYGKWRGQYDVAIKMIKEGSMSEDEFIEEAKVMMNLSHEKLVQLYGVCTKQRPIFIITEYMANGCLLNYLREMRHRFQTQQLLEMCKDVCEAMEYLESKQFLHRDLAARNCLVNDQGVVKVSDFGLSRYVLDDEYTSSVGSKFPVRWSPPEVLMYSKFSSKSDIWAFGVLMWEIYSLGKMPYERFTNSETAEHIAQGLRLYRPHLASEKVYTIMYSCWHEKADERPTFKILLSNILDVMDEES

SMILES: CNS(=O)(=O)c1ccc(N(C)C)c(Nc2ncnc3cc(OCCCN4CCN(C(=O)N5CCN(CCC#Cc6ccc(N7CCC(=O)NC7=O)cc6)CC5)CC4)ccc23)c1 [Compound 21, 4-(dimethylamino)-3-((7-(3-(4-(4-(4-(4-(2,4-dioxotetrahydropyrimidin-1(2H)-yl)phenyl)but-3-yn-1-yl)piperazine-1-carbonyl)piperazin-1-yl)propoxy)quinazolin-4-yl)amino)-N-methylbenzenesulfonamide]
TNNI3K degradation (western blot) (hTNNI3K WT): full degradation
concentration from which no residual TNNI3K was detected (hTNNI3K WT): 6 nM

SMILES: CNS(=O)(=O)c1ccc(N(C)C)c(Nc2ncnc3cc(OCCCN4CCC5(CC4)CN(CC#Cc4ccc(N6CCC(=O)NC6=O)cc4)CCO5)ccc23)c1 [Compound 22, 4-(dimethylamino)-3-((7-(3-(4-(3-(4-(2,4-dioxotetrahydropyrimidin-1(2H)-yl)phenyl)prop-2-yn-1-yl)-1-oxa-4,9-diazaspiro[5.5]undecan-9-yl)propoxy)quinazolin-4-yl)amino)-N-methylbenzenesulfonamide]
TNNI3K degradation (western blot) (hTNNI3K WT): full degradation
concentration from which no residual TNNI3K was detected (hTNNI3K WT): 32 nM

SMILES: Cc1c(NC(=O)c2ccc(C(C)(C)O)cc2F)cc(F)cc1-c1ncnc2[nH]c(-c3ccc(CNCCCCOCCn4cccc(CN5CCC(=O)NC5=O)c4=O)cc3)cc12 [Compound 34, N-(3-(6-(4-(((4-(2-(3-((2,4-dioxotetrahydropyrimidin-1(2H)-yl)methyl)-2-oxopyridin-1(2H)-yl)ethoxy)butyl)amino)methyl)phenyl)-7H-pyrrolo[2,3-d]pyrimidin-4-yl)-5-fluoro-2-methylphenyl)-2-fluoro-4-(2-hydroxypropan-2-yl)benzamide]
BTK degradation Amax (BTK): 40.3%
DC50 (BTK): 0.642 µM
AC50 (CRBN [1]): 0.736 µM

SMILES: Cc1c(NC(=O)N2C[C@H](CC(C)C)[C@@H](O)C2)cc(F)cc1-c1ncnc2[nH]c(-c3ccc(CN4CCC(OC5CCN(CCn6cccc(CN7CCC(=O)NC7=O)c6=O)CC5)CC4)cc3)cc12 [Compound 35, (3R,4S)—N-(3-(6-(4-((4-((1-(2-(3-((2,4-dioxotetrahydropyrimidin-1(2H)-yl)methyl)-2-oxopyridin-1(2H)-yl)ethyl)piperidin-4-yl)oxy)piperidin-1-yl)methyl)phenyl)-7H-pyrrolo[2,3-d]pyrimidin-4-yl)-5-fluoro-2-methylphenyl)-3-hydroxy-4-isobutylpyrrolidine-1-carboxamide]
BTK degradation Amax (BTK): 6.6%
DC50 (BTK): 0.0021 µM
AC50 (CRBN [1]): 0.742 µM

AC50 (CRBN [2]; [4]): 8 µM
AC50 (CRBN [3]; [5]): 6.01 µM
SMILES: CCOC(=O)Cc1cncc(N2CCC(=O)NC2=O)c1 [ILB-71, Ethyl 2-(5-(2,4-dioxotetrahydropyrimidin-1(2H)-yl)pyridin-3-yl)acetate]

AC50 (CRBN [2]; [4]): 18 µM
AC50 (CRBN [3]; [5]): 29.4 µM
SMILES: COC(=O)c1cncc(N2CCC(=O)NC2=O)c1 [ILB-72, Methyl 5-(2,4-dioxotetrahydropyrimidin-1(2H)-yl)nicotinate]

AC50 (CRBN [2]): 11.9 µM
AC50 (CRBN [3]): 15 µM
SMILES: O=C1CCN(c2cncc(Cl)c2)C(=O)N1 [ILB-73, 1-(5-Chloropyridin-3-yl)dihydropyrimidine-2,4(1H,3H)-dione]

AC50 (CRBN [2]; [4]): 4.61 µM
AC50 (CRBN [3]; [5]): 6.28 µM
SMILES: C=C(C)c1cncc(N2CCC(=O)NC2=O)c1 [ILB-74, 1-(5-(Prop-1-en-2-yl)pyridin-3-yl)dihydropyrimidine-2,4(1H,3H)-dione]

AC50 (CRBN [2]): 28.7 µM
AC50 (CRBN [3]): > 50 µM
CRBN Amax* (% at 50 μM) Format 2a (CRBN [3]; greatest effect as % displacement of the reference probe at the highest concentration tested (50 μM), given where AC50 >50 μM, 45 min): 40%
SMILES: CC(O)c1ccc(N2CCC(=O)NC2=O)cn1 (centres unmarked) [ILB-75, 1-(6-(1-Hydroxyethyl)pyridin-3-yl)dihydropyrimidine-2,4(1H,3H)-dione]

AC50 (CRBN [2]; [4]): 15.3 µM
AC50 (CRBN [3]; [5]): 8.09 µM
SMILES: O=C1CCN(c2cncc(Br)c2)C(=O)N1 [ILB-76, 1-(5-Bromopyridin-3-yl)dihydropyrimidine-2,4(1H,3H)-dione]

AC50 (CRBN [2]; [4]): 0.3 µM
AC50 (CRBN [3]; [5]): 0.5 µM
SMILES: O=C1CCN(c2cncc(O)c2)C(=O)N1 [ILB-77, 1-(5-Hydroxypyridin-3-yl)dihydropyrimidine-2,4(1H,3H)-dione]

AC50 (CRBN [2]; [4]): 5.07 µM
AC50 (CRBN [3]; [5]): 5.72 µM
SMILES: CCOC(=O)c1cncc(N2CCC(=O)NC2=O)c1 [ILB-78, Ethyl 5-(2,4-dioxotetrahydropyrimidin-1(2H)-yl)nicotinate]

AC50 (CRBN [2]): 6.78 µM
AC50 (CRBN [3]): 7.15 µM
SMILES: O=C1CCN(c2cn[nH]c2)C(=O)N1 [ILB-79, 1-(1H-Pyrazol-4-yl)dihydropyrimidine-2,4(1H,3H)-dione]
